In US20090305995A1, “AGONISTS AND ANTAGONISTS OF THE SOMATOSTATIN RECEPTOR” (Novartis AG, priority 2004, published 2009):
≈ marks a conversion by molar mass, not a printed value. Read-outs that look alike come from different tables or passages of the source.

Assays:
Type in all cases: physicochemical
[1] = high throughput permeability (HT-Permeability, log Pe); conditions: PAMPA, Pe in cm/s
[2] = high throughput solubility (HT-Solubility)
[3] = HT-logP o/w, high throughput assay based on artificial liquid membrane permeability
Source text: To be absorbed and transported by passive diffusion, drugs must be sufficiently lipophilic to penetrate the lipid cores of membranes, but not too lipophilic that they get retained and accumulated there. The lipophilictity of a compound is expressed by the octanol/water partition coefficient or distribution coefficient. A first approximation of substance polarity can either be given by computer assisted calculations giving Clog P values or by measurement of the partition coefficients in high-throughput assays (HT-log P o/w) (Faller et al., 2004; Wohnsland et al., 2001).
Octanol/water partition coefficients are measured in a high throughput assay based on artificial liquid membrane permeability. […] Still many approaches to calculate log P values are limited due to a lack of parameterization of certain fragments and fail with increasing molecular weight which implicates higher structural complexity. Similar problems and failures are observed in chromatographic determinations of log P: Peptides might undergo structural changes driven by interactions with the stationary phase. Decisive interactions between the stationary phase and the defolded analytes are therefore also based on the linear peptide sequence. For this reason measured HT-log P o/w values based on chromatographic assays employing stationary phases may lead to erroneous results.

[4] = pH 4, pH 4.0, read-out: HT-Permeability logPe pH 4.0 (converted)
[5] = pH 1, pH 1.0, read-out: HT-Solubility pH 1.0
[6] = pH 6.8, pH 6.8, read-out: HT-Solubility pH 6.8
[7] = pH 4.0, read-out: HT-Permeability logPe pH 4.0 (converted)
[8] = octanol/water; read-out: HT LogP ohw
[9] = pH 1.0, read-out: HT-Solubility pH 1.0
[10] = pH 6.8, read-out: HT-Solubility pH 6.8
[11] = octanol/water, read-out: HT LogP ohw
[12] = pH 8, pH 8.0, read-out: HT-Permeability logPe pH 8.0 (converted)
[13] = pH 6.8, pH 6.8, read-out: HT-Permeability logPe pH 6.8 (converted)

Structure (SMILES) | Papp [1, 4] | solubility [2, 5] | solubility [2, 6] | Papp [1, 7] | logP [3, 8] | solubility [2, 9] | solubility [2, 10] | logP [3, 11] | Papp [1, 12] | water solubility (in words) ([2]; see FIG. 10) | Papp [1, 13]
CC(=O)N[C@H](CC(=O)N[C@H](Cc1c[nH]c2ccccc12)C(=O)N[C@@H](CCCCN)CC(=O)N[C@H](CC(N)=O)[C@@H](C)O)Cc1ccccc1 [Compound 2, Ac—(S)-β^3-HPhe-(R)-Trp-(S)-β^3-HLys-(R), (R)—HThr-NH2] | 0.1 ×10⁻⁶ cm/s | 13.3 µg/mL (≈ 20 µM) | 13.3 µg/mL (≈ 20 µM) |  |  |  |  |  |  |  | 
C[C@H]1OC(=O)C[C@H]1NC(=O)C[C@H](CCCCN)NC(=O)[C@@H](Cc1c[nH]c2ccccc12)NC(=O)C[C@H](Cc1ccccc1)NC(=O)c1ccccc1 [Compound 6, Benzoyl-(S)-β^3-HPhe-(R)-Trp-(S)-β^3-HLys-(R)-4-amino-(R)-5-methyl-dihydro-furan-2-one] |  |  |  | 0.1 ×10⁻⁶ cm/s | 2.8 | 142 µg/mL (≈ 200 µM) | 14.2 µg/mL (≈ 20 µM) |  |  |  | 
CC(=O)N[C@H](CC(=O)N[C@H](Cc1c[nH]c2ccccc12)C(=O)N[C@@H](CCCCN)CC(=O)N[C@@H]1CC(=O)O[C@@H]1C)Cc1ccccc1 [Compound 7, Ac—(S)-β^3-HPhe-(R)-Trp-(S)-β^3-HLys-(R)-4-amino-(R)-5-methyl-dihydro-furan-2-one] |  | 129 µg/mL (≈ 200 µM) | 129 µg/mL (≈ 200 µM) |  |  |  |  |  |  |  | 
C[C@H]1OC(=O)C[C@H]1NC(=O)C[C@H](CCCCN)NC(=O)[C@@H](Cc1c[nH]c2ccccc12)NC(=O)C[C@H](Cc1ccccc1)NC(=O)CCc1ccccc1 [Compound 10, Dihydrocinnemoyl-(S)-β^3-HPhe-(R)-Trp-(S)-β^3-HLys-(R)-4-amino-(R)-5-methyl-dihydro-furan-2-one] | 0.1 ×10⁻⁶ cm/s | 36.8 µg/mL (≈ 49.9 µM) | 7.4 µg/mL (≈ 10 µM) |  |  |  |  | 2.7 |  |  | 
CCCCCCCCC(=O)N[C@H](CC(=O)N[C@H](Cc1c[nH]c2ccccc12)C(=O)N[C@@H](CCCCN)CC(=O)N[C@@H]1CC(=O)O[C@@H]1C)Cc1ccccc1 [Compound 11] | 0.1 ×10⁻⁶ cm/s | 14.9 µg/mL (≈ 20 µM) | 14.9 µg/mL (≈ 20 µM) |  |  |  |  | 3.9 |  |  | 
C[C@H]1OC(=O)C[C@H]1NC(=O)C[C@H](CCCCN)NC(=O)[C@@H](Cc1c[nH]c2ccccc12)NC(=O)C[C@H](Cc1ccccc1)NC(=O)C12CC3CC(CC(C3)C1)C2 [Compound 13, Adamantoyl-(S)-β^3-HPhe-(R)-Trp-(S)-β^3-HLys-(R)-4-amino-(R)-5-methyl-dihydro-furan-2-one] | 3.16 ×10⁻⁶ cm/s | 153 µg/mL (≈ 200 µM) | 76.7 µg/mL (≈ 100 µM) |  |  |  |  | 2.8 | 10 ×10⁻⁶ cm/s | good water solubility | 
C[C@@H](O)[C@@H](CC(N)=O)NC(=O)C[C@H](CCCCN)NC(=O)[C@@H](Cc1c[nH]c2ccccc12)NC(=O)C[C@H](Cc1ccccc1)NC(=O)c1ccccc1 [Compound 14, Benzoyl-(S)-β^3-HPhe-(R)-Trp-(S)-β^3-HLys-(R), (R)—HThr-NH2] |  |  |  | 0.1 ×10⁻⁶ cm/s | 2.6 | 145 µg/mL (≈ 200 µM) | 14.5 µg/mL (≈ 20 µM) |  |  |  | 
C[C@@H](O)[C@@H](CC(N)=O)NC(=O)C[C@H](CCCCN)NC(=O)[C@@H](Cc1c[nH]c2ccccc12)NC(=O)C[C@H](Cc1ccccc1)NC(=O)CCc1ccccc1 [Compound 15, Dihydrocinnemoyl-(S)-β^3-HPhe-(R)-Trp-(S)-β^3-HLys-(R), (R)—HThr-NH2] | 3.98 ×10⁻⁶ cm/s | 37.7 µg/mL (≈ 50 µM) | 15.1 µg/mL (≈ 20 µM) |  |  |  |  | 2.7 | 12.6 ×10⁻⁶ cm/s |  | 6.31 ×10⁻⁶ cm/s
CCCCCCCCC(=O)N[C@H](CC(=O)N[C@H](Cc1c[nH]c2ccccc12)C(=O)N[C@@H](CCCCN)CC(=O)N[C@H](CC(N)=O)[C@@H](C)O)Cc1ccccc1 [Compound 17, Nonanoyl-(S)-β^3-HPhe-(R)-Trp-(S)-β^3-HLys-(R), (R)—HThr-NH2] | 12.6 ×10⁻⁶ cm/s | 15.2 µg/mL (≈ 19.9 µM) | 15.2 µg/mL (≈ 19.9 µM) |  |  |  |  | 4.2 |  |  | 2.51 ×10⁻⁶ cm/s
CC(C)[C@@H](CC(=O)N(C)CCc1ccccc1)NC(=O)C[C@H](CCCCN)NC(=O)[C@@H](Cc1c[nH]c2ccccc12)NC(=O)C[C@H](Cc1ccccc1)NC(=O)CCc1ccccc1 [Compound 23, Dihydrocinnemoyl-(S)-β^3-HPhe-(R)-Trp-(S)-β^3-HLys-(R)-β^3-Leu-methyl-phenethyl-amide] | 0.1 ×10⁻⁶ cm/s | 17.4 µg/mL (≈ 20 µM) | 17.4 µg/mL (≈ 20 µM) |  |  |  |  | 5.9 |  |  | 
CCN(CC)C(=O)C[C@@H](NC(=O)C[C@H](CCCCN)NC(=O)[C@@H](Cc1c[nH]c2ccccc12)NC(=O)C[C@H](Cc1ccccc1)NC(=O)CCc1ccccc1)C(C)C [Compound 24, Dihydrocinnemoyl-(S)-β^3-HPhe-(R)-Trp-(S)-β^3-HLys-(R)-β^3-Leu-diethyl-amide] | 0.1 ×10⁻⁶ cm/s | 16.2 µg/mL (≈ 20 µM) | 16.2 µg/mL (≈ 20 µM) |  |  |  |  | 4.1 |  |  | 
